Experiments:
[1] = target: T1, Recombinant full-length human IDO1 (Homo sapiens, UniProt P14902); assay: IDO1 enzymatic assay (NFK quantified by LCMS); type: biochemical; conditions: 2 nM enzyme, 5 μM L-tryptophan, pH6.5, 30 minutes pre-incubation at RT; mean values when measured multiple times; read-out: hIDO activity (IC50 in nM)
T1 construct: Recombinant full-length human IDO1 with a N-terminal hexahistidine tag; hexahistidine (His6) (N); made in house; host or cells: E. coli
Experimental: 1) Testing Compounds for IDO Inhibitory Activity in an IDO1 Enzymatic Assay:
Recombinant full-length human IDO1 with a N-terminal hexahistidine tag expressed in E. coli and purified to homogeneity is incubated at a final concentration of 2 nM in assay buffer consisting of 37.5 mM phosphate buffer at pH6.5 supplemented with 10 mM ascorbic acid, 0.45 μM methylene blue, 50U/ml catalase, 0.01% BSA, and 0.01% Tween 20 (protocol modified from Seegers et al, JBS 2014). Example compounds are serially diluted in DMSO, further diluted in phosphate buffer, and added to the enzyme at final concentrations ranging from 10 μM to 0.5 nM. The final DMSO concentration is 0.6%. Following a pre-incubation of 30 minutes at RT, the reaction is started by the addition of L-tryptophan at a final concentration of 5 μM in assay buffer. After 30 minutes of incubation at RT, 3 μL of the 20 μl reaction mixture are transferred to a 384 deep well plate containing 25 μL of deionized water. 100 μl of 200 nM L-Tryptophan-(indole-d5) in cold 100% methanol are added followed by a 10 minutes centrifugation at 3220×g at 4° C. An additional 75 μL of deionized water are then added followed by a 10 minutes centrifugation at 3220×g at 4° C. The product of the reaction N′-Formylkynurenine (NFK) is quantified by LCMS and normalized to the L-Tryptophan-(indole-d5) signal. Samples with 0.6% DMSO (0% effect) and a TDO/IDO inhibitor (100% effect) are used as control samples to set the parameters for the non-linear regression necessary for the determination of the half-maximal inhibitory concentration (IC50) for each compound. For each compound concentration the percentage of activity compared to 0% and 100% effect is calculated as average±STDEV (each concentration measured in duplicate). IC50 values and curves are generated with XLfit software (IDBS) using Dose-Response One Site model 203 (four parameter logistic curve model). The calculated IC50 values may fluctuate depending on the daily assay performance. Fluctuations of this kind are known to those skilled in the art. When compounds are measured multiple times, mean values are given.

[2] = target: T2, Recombinant human TDO comprising amino acids 19-407 (Homo sapiens, UniProt P48775); assay: TDO2 enzymatic assay (NFK quantified by LCMS); type: biochemical; conditions: 15 nM enzyme, 200 μM L-tryptophan, pH7, 30 minutes pre-incubation at RT; mean values when measured multiple times; read-out: hTDO activity (IC50 in nM)
T2 construct: Recombinant human TDO comprising amino acids 19-407 with a N-terminal hexahistidine tag; hexahistidine (His6) (N); made in house; host or cells: E. coli
Experimental: 2) Testing Compounds for TDO Inhibitory Activity in a TDO2 Enzymatic Assay:
Recombinant human TDO comprising amino acids 19-407 with a N-terminal hexahistidine tag expressed in E. coli and purified to homogeneity is incubated at a final concentration of 15 nM in assay buffer consisting of 75 mM phosphate buffer at pH7 supplemented with 100 μM ascorbic acid, 50U/ml Catalase, 0.01% BSA, and 0.01% Tween 20 (protocol modified from Seegers et al, JBS 2014). Example compounds are serially diluted in DMSO, further diluted in phosphate buffer, and added to the reaction mixture at final concentrations ranging from 10 μM to 0.5 nM. The final DMSO concentration is 0.6%. Following a pre-incubation of 30 minutes at RT, the reaction is started by the addition of L-tryptophan at a final concentration of 200 μM in assay buffer. After 30 minutes of incubation at RT, 3 μL of the reaction mixture are transferred to a 384 deep well plate containing 25 μL of deionized water. 100 μl of 200 nM L-Tryptophan-(indole-d5) in cold 100% methanol are added followed by a 10 minutes centrifugation at 3220×g at 4° C. An additional 75 μL of deionized water are then added followed by a 10 minutes centrifugation at 3220×g at 4° C. The product of the reaction N′-Formylkynurenine (NFK) is quantified by LCMS and normalized to the L-Tryptophan-(indole-d5) signal. Samples with 0.6% DMSO (0% effect) and a TDO/IDO inhibitor (100% effect) are used as control samples to set the parameters for the non-linear regression necessary for the determination of the half-maximal inhibitory concentration (IC50) for each compound. For each compound concentration the percentage of activity compared to 0% and 100% effect is calculated as average±STDEV (each concentration measured in duplicate). IC50 values and curves are generated with XLfit software (IDBS) using Dose-Response One Site model 203 (four parameter logistic curve model). The calculated IC50 values may fluctuate depending on the daily assay performance. Fluctuations of this kind are known to those skilled in the art. When compounds are measured multiple times, mean values are given.

T1 sequence (P14902 whole entry): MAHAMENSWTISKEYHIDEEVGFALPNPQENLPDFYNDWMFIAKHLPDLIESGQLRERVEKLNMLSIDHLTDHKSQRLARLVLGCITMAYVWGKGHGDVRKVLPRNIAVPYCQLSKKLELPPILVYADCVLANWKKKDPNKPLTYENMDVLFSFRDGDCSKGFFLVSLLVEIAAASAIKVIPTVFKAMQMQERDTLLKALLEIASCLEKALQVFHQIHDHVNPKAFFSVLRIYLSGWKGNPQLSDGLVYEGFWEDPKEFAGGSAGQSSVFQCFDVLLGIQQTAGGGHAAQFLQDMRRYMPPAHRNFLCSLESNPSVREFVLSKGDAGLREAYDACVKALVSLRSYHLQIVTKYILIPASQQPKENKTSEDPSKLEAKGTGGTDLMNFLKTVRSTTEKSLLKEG
T2 sequence (P48775 19-406 limits assumed): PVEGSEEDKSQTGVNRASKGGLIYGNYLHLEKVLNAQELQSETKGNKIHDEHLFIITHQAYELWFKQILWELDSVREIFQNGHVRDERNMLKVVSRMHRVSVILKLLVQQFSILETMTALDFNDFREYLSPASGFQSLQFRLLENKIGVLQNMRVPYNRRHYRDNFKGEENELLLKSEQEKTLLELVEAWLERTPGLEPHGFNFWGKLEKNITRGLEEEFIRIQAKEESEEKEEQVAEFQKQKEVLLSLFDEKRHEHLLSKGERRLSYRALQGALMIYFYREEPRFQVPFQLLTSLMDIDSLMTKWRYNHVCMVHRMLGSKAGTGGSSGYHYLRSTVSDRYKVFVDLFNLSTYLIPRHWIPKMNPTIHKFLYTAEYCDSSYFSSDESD

SMILES | IC50 [1] [nM] | IC50 [2] [nM]
Cc1sc2cncn2c1C(O)c1cn(-c2ccc(OCC3CC3)cc2)nn1 (racemic) [Example 63, rac-[1-(4-Cyclopropylmethoxy-phenyl)-1H-[1,2,3]triazol-4-yl]-(2-methyl-imidazo[5,1-b]thiazol-3-yl)-methanol] | 27.7 | > 10200
N#Cc1ccc(-n2cc(C(O)c3c(C4CC4)sc4cncn34)nn2)cc1 (racemic) [Example 11, rac-4-{4-[(2-Cyclopropyl-imidazo[5,1-b]thiazol-3-yl)-hydroxy-methyl]-[1,2,3]triazol-1-yl}-benzonitrile] | 39.6 | > 10200
CCc1sc2cncn2c1C(O)c1cn(-c2ccc(N3CCOCC3)cc2)nn1 (racemic) [Example 47, rac-(2-Ethyl-imidazo[5,1-b]thiazol-3-yl)-[1-(4-morpholin-4-yl-phenyl)-1H-[1,2,3]triazol-4-yl]-methanol] | 44.4 | > 10200
O=C(NC1CC1)c1ccc(-n2cc(C(O)c3c(C4CC4)sc4cncn34)nn2)cc1 (racemic) [Example 105, rac-N-Cyclopropyl-4-{4-[(2-cyclopropyl-imidazo[5,1-b]thiazol-3-yl)-hydroxy-methyl]-[1,2,3]triazol-1-yl}-benzamide] | 22.1 | > 10200
COc1ccccc1-n1cc(C(O)c2c(C3CC3)sc3cncn23)nn1 (racemic) [Example 7, rac-(2-Cyclopropyl-imidazo[5,1-b]thiazol-3-yl)-[1-(2-methoxy-phenyl)-1H-[1,2,3]triazol-4-yl]-methanol] | 50.9 | > 10200
CCc1sc2cncn2c1C(O)c1cn(-c2ccc(S(=O)(=O)N3CCCC3)cc2)nn1 (racemic) [Example 242, rac-(2-Ethyl-imidazo[5,1-b]thiazol-3-yl)-{1-[4-(pyrrolidine-1-sulfonyl)-phenyl]-1H-[1,2,3]triazol-4-yl}-methanol] | 139 | > 10200
COc1ccc(-n2cc(C(O)c3c(C4(F)CC4)sc4cncn34)nn2)cc1 (racemic) [Example 92, rac-[2-(1-Fluoro-cyclopropyl)-imidazo[5,1-b]thiazol-3-yl]-[1-(4-methoxy-phenyl)-1H-[1,2,3]triazol-4-yl]-methanol] | 32.7 | > 10200
CC(C)Oc1ccc(-n2cc(C(O)c3c(C4CC4)sc4cncn34)nn2)cn1 (racemic) [Example 82, rac-(2-Cyclopropyl-imidazo[5,1-b]thiazol-3-yl)-[1-(6-isopropoxy-pyridin-3-yl)-1H-[1,2,3]triazol-4-yl]-methanol] | 44.2 | > 10200
OC(c1cn(-c2cccc(C(F)(F)F)c2)nn1)c1c(C2CC2)sc2cncn12 (racemic) [Example 5, rac-(2-Cyclopropyl-imidazo[5,1-b]thiazol-3-yl)-[1-(3-trifluoromethyl-phenyl)-1H-[1,2,3]triazol-4-yl]-methanol] | 74.2 | > 10200
COc1ccc(-n2cc(C(O)c3c(C4=CCCC4)sc4cncn34)nn2)cc1 (racemic) [Example 259, rac-(2-(Cyclopent-1-enyl)-imidazo[5,1-b]thiazol-3-yl)-[1-(4-methoxy-phenyl)-1H-[1,2,3]triazol-4-yl]-methanol] | 85.6 | > 10200
OC(c1cnn(-c2ccc3c(c2)OCCO3)c1)c1c(C2CC2)sc2cncn12 (racemic) [Example 222, rac-(2-Cyclopropyl-imidazo[5,1-b]thiazol-3-yl)-[1-(2,3-dihydro-benzo[1,4]dioxin-6-yl)-1H-pyrazol-4-yl]-methanol] | 97.2 | 7880
COc1ccc(-n2nnc(C(O)c3c(C4CC4)sc4cncn34)c2C(C)C)cc1 (racemic) [Example 280, rac-(2-Cyclopropyl-imidazo[5,1-b]thiazol-3-yl)-[5-isopropyl-1-(4-methoxy-phenyl)-1H-[1,2,3]triazol-4-yl]-methanol] | 53.2 | > 10200
OC(c1cn(-c2ccc(Cl)cc2)nn1)c1c(C2CC2)sc2cncn12 (racemic) [Example 34, rac-[1-(4-Chloro-phenyl)-1H-[1,2,3]triazol-4-yl]-(2-cyclopropyl-imidazo[5,1-b]thiazol-3-yl)-methanol] | 21.9 | > 10200

Next, values leading:

IC50 [1] [nM] | IC50 [2] [nM] | SMILES
13.7 | 9020 | COc1ccc(-n2nnc(C(O)c3c(C4CC4)sc4cncn34)c2C2CC2)cc1 (racemic) [Example 281, rac-(2-Cyclopropyl-imidazo[5,1-b]thiazol-3-yl)-[5-cyclopropyl-1-(4-methoxy-phenyl)-1H-[1,2,3]triazol-4-yl]-methanol]
5.58 | > 10200 | O[C@@H](c1cn(-c2ccc(OCC3(F)COC3)c(Cl)c2)nn1)c1c(C2CC2)sc2cncn12 [Example 282, (R)-{1-[3-Chloro-4-(3-fluoro-oxetan-3-ylmethoxy)-phenyl]-1H-[1,2,3]triazol-4-yl}-(2-cyclopropyl-imidazo[5,1-b]thiazol-3-yl)-methanol]
14.5 | > 10200 | O=C(NCCCO)c1ccc(-n2cc(C(O)c3c(C4CC4)sc4cncn34)nn2)cc1 (racemic) [Example 184, rac-4-{4-[(2-Cyclopropyl-imidazo[5,1-b]thiazol-3-yl)-hydroxy-methyl]-[1,2,3]triazol-1-yl}-N-(3-hydroxy-propyl)-benzamide]
21.3 | > 10200 | OC(c1cn(-c2cccc3[nH]ccc23)nn1)c1c(C2CC2)sc2cncn12 (racemic) [Example 20, rac-(2-Cyclopropyl-imidazo[5,1-b]thiazol-3-yl)-[1-(1H-indol-4-yl)-1H-[1,2,3]triazol-4-yl]-methanol]
2.49 | 9930 | CC(F)(F)c1sc2cncn2c1C(O)c1cn(-c2ccc(O)c(Cl)c2)nn1 (racemic) [Example 329, rac-2-Chloro-4-(4-{[2-(1,1-difluoro-ethyl)-imidazo[5,1-b]thiazol-3-yl]-hydroxy-methyl}-[1,2,3]triazol-1-yl)-phenol]
17.4 | > 10200 | OC(c1cn(-c2ccc(OCC(F)(F)F)nc2)nn1)c1c(C2CC2)sc2cncn12 (racemic) [Example 78, rac-(2-Cyclopropyl-imidazo[5,1-b]thiazol-3-yl)-{1-[6-(2,2,2-trifluoro-ethoxy)-pyridin-3-yl]-1H-[1,2,3]triazol-4-yl}-methanol]
7.22 | > 10200 | COc1ncc(-n2cc(C(O)c3c(C4CC4)sc4cncn34)nn2)cc1F (racemic) [Example 79, rac-(2-Cyclopropyl-imidazo[5,1-b]thiazol-3-yl)-[1-(5-fluoro-6-methoxy-pyridin-3-yl)-1H-[1,2,3]triazol-4-yl]-methanol]
5.3 | > 10200 | CCOc1ccc(-n2cc(C(O)c3c(C4CC4)sc4cncn34)nn2)cc1 (racemic) [Example 32, rac-(2-Cyclopropyl-imidazo[5,1-b]thiazol-3-yl)-[1-(4-ethoxy-phenyl)-1H-[1,2,3]triazol-4-yl]-methanol]

From patent US20200405696A1, “INHIBITORS OF INDOLEAMINE 2,3-DIOXYGENASE AND/OR TRYPTOPHAN 2,3-DIOXYGENASE” (IDORSIA PHARMACEUTICALS LTD, priority 2018, published 2020)
